Measured values taken from patent publication US10206394B2, “Herbicidal compounds” (Syngenta Participations AG, priority 2014, dated 2019).
Read-outs that look alike come from different tables or passages of the source.

Columns and labels:
Assay in all cases: Glasshouse assay for herbicidal activity (pre- and post-emergence), percentage phytotoxicity
Type in all cases: in vivo
Avena fatua (AVEFA) = conditions: Avena fatua
Method in brief: (§1)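 Visual phytotoxicity score, 0% = undamaged to 100% = total kill, read 20 days after treatment for PRE and 15 days for POST. Pots of standard soil; treatment at day 1 (PRE) or roughly day 12 (POST). Glasshouse: 16 h photoperiod, 65% RH, 24/18 or 20/16 °C by climate type.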

[1] = tested on: Echinochloa crus-galli (ECHCG); conditions: Echinochloa crus-galli
Method in brief: as §1

Lolium perenne (LOLPE) = conditions: Lolium perenne
Method in brief: as §1

[2] = tested on: Alopecurus myosuroides (ALOMY); conditions: Alopecurus myosuroides
Method in brief: as §1

[3] = post-emergence, 360 h, 250 g/ha, post-emergence, 15 DAA, visual assessment (100%=total damage, 0%=no damage), read-out: Post-emergence herbicidal activity (percentage phytotoxicity) AVEFA POST
[4] = pre-emergence, 480 h, 250 g/ha, pre-emergence, 20 DAA, visual assessment (100%=total damage, 0%=no damage), read-out: Pre-emergence herbicidal activity (percentage phytotoxicity) AVEFA PRE
[5] = post-emergence, 360 h, 250 g/ha, post-emergence, 15 DAA, visual assessment (100%=total damage, 0%=no damage), read-out: Post-emergence herbicidal activity (percentage phytotoxicity) ECHCG POST
[6] = pre-emergence, 480 h, 250 g/ha, pre-emergence, 20 DAA, visual assessment (100%=total damage, 0%=no damage), read-out: Pre-emergence herbicidal activity (percentage phytotoxicity) ECHCG PRE
[7] = post-emergence, 360 h, 250 g/ha, post-emergence, 15 DAA, visual assessment (100%=total damage, 0%=no damage), read-out: Post-emergence herbicidal activity (percentage phytotoxicity) LOLPE POST
[8] = pre-emergence, 480 h, 250 g/ha, pre-emergence, 20 DAA, visual assessment (100%=total damage, 0%=no damage), read-out: Pre-emergence herbicidal activity (percentage phytotoxicity) LOLPE PRE
[9] = post-emergence, 360 h, 250 g/ha, post-emergence, 15 DAA, visual assessment (100%=total damage, 0%=no damage), read-out: Post-emergence herbicidal activity (percentage phytotoxicity) ALOMY POST
[10] = pre-emergence, 480 h, 250 g/ha, pre-emergence, 20 DAA, visual assessment (100%=total damage, 0%=no damage), read-out: Pre-emergence herbicidal activity (percentage phytotoxicity) ALOMY PRE
[11] = post-emergence, 360 h, Rate 250 g/ha, post-emergence, assessed visually 15 DAA, 100%=total damage, 0%=no damage, read-out: Post-emergence herbicidal activity (percentage phytotoxicity) AVEFA POST
[12] = pre-emergence, 480 h, Rate 250 g/ha, pre-emergence, assessed visually 20 DAA, 100%=total damage, 0%=no damage, read-out: Pre-emergence herbicidal activity (percentage phytotoxicity) AVEFA PRE
[13] = post-emergence, 360 h, Rate 250 g/ha, post-emergence, assessed visually 15 DAA, 100%=total damage, 0%=no damage, read-out: Post-emergence herbicidal activity (percentage phytotoxicity) ECHCG POST
[14] = pre-emergence, 480 h, Rate 250 g/ha, pre-emergence, assessed visually 20 DAA, 100%=total damage, 0%=no damage, read-out: Pre-emergence herbicidal activity (percentage phytotoxicity) ECHCG PRE
[15] = post-emergence, 360 h, Rate 250 g/ha, post-emergence, assessed visually 15 DAA, 100%=total damage, 0%=no damage, read-out: Post-emergence herbicidal activity (percentage phytotoxicity) LOLPE POST
[16] = pre-emergence, 480 h, Rate 250 g/ha, pre-emergence, assessed visually 20 DAA, 100%=total damage, 0%=no damage, read-out: Pre-emergence herbicidal activity (percentage phytotoxicity) LOLPE PRE
[17] = post-emergence, 360 h, Rate 250 g/ha, post-emergence, assessed visually 15 DAA, 100%=total damage, 0%=no damage, read-out: Post-emergence herbicidal activity (percentage phytotoxicity) ALOMY POST
[18] = pre-emergence, 480 h, Rate 250 g/ha, pre-emergence, assessed visually 20 DAA, 100%=total damage, 0%=no damage, read-out: Pre-emergence herbicidal activity (percentage phytotoxicity) ALOMY PRE

SMILES | pest or weed control at 250 g/ha (Avena fatua (AVEFA); [3]) [%] | pest or weed control at 250 g/ha (Avena fatua (AVEFA); [4]) [%] | pest or weed control at 250 g/ha [1, 5] [%] | pest or weed control at 250 g/ha [1, 6] [%] | pest or weed control at 250 g/ha (Lolium perenne (LOLPE); [7]) [%] | pest or weed control at 250 g/ha (Lolium perenne (LOLPE); [8]) [%] | pest or weed control at 250 g/ha [2, 9] [%] | pest or weed control at 250 g/ha [2, 10] [%] | pest or weed control at 250 g/ha (Avena fatua (AVEFA); [11]) [%] | pest or weed control at 250 g/ha (Avena fatua (AVEFA); [12]) [%] | pest or weed control at 250 g/ha [1, 13] [%] | pest or weed control at 250 g/ha [1, 14] [%] | pest or weed control at 250 g/ha (Lolium perenne (LOLPE); [15]) [%] | pest or weed control at 250 g/ha (Lolium perenne (LOLPE); [16]) [%] | pest or weed control at 250 g/ha [2, 17] [%] | pest or weed control at 250 g/ha [2, 18] [%]
COCCCNC(=O)CC1CC(=O)C(c2c(C)cc(-c3ncc(F)cn3)cc2C)C1=O (centres unmarked) [Compound B106] | 100 | 70 | 100 | 100 | 100 | 90 | 100 | 80 | – | – | – | – | – | – | – | –
Cc1cc(-c2ncc(F)cn2)cc(C)c1C1C(=O)CC(CC(N)=O)C1=O (centres unmarked) [Compound B107] | 90 | 10 | 80 | 60 | 80 | 20 | 80 | 60 | – | – | – | – | – | – | – | –
C=CCCNC(=O)CC1CC(=O)C(c2c(C)cc(C#CC)cc2C)C1=O (centres unmarked) [Compound A57] | – | – | – | – | – | – | – | – | 100 | 90 | 100 | 100 | 100 | 100 | 100 | 100
Cc1cc(C)c(C2C(=O)CC(CC(=O)NCc3ccc(C(F)(F)F)nc3)C2=O)c(C)c1 (centres unmarked) [Compound A98] | – | – | – | – | – | – | – | – | 90 | 20 | 60 | 80 | 80 | 80 | 90 | 100
